Legend:
Homo sapiens [1] = species: Homo sapiens; assay: Selectivity for MMP13 over MMP2
Homo sapiens [2] = species: Homo sapiens; assay: Selectivity for MMP13 over MMP12
Collagenase 3 [3] = biological target: T1, Collagenase 3 (Homo sapiens, UniProt P45452)
Homo sapiens [4] = species: Homo sapiens; assay: Selectivity for MMP13 over MMP8
Homo sapiens [5] = species: Homo sapiens; assay: Selectivity for MMP13 over MMP9
[6] = biological target: Matrix metalloproteinase (1 and 13) (Homo sapiens) (UniProt P45452+P03956); assay: Selectivity for MMP13 over MMP1; assay type: protein assay
Cartilage tissue = assay: Inhibition of bovine nasal cartilage degradation; assay type: functional, tissue-based; conditions: Bos taurus
Collagenase 3 [7] = biological target: Collagenase 3 (Rattus norvegicus, UniProt P23097); assay: Inhibition of MMP13 in rat plasma; assay type: cell-free
[8] = Half life in rat; assay type: ADME, organism-based; conditions: in vivo
Homo sapiens [9] = species: Homo sapiens; assay: Selectivity for MMP13 over MMP3
[10] = Volume of distribution in rat; assay type: ADME, organism-based; conditions: in vivo, read-out: Vdss
[11] = Plasma clearance in rat; assay type: ADME, organism-based
Homo sapiens [12] = species: Homo sapiens; assay: Selectivity for MMP13 over MMP14
Collagenase 3 [13] = biological target: T1, Collagenase 3; assay: Inhibition of MMP13 in hamster synovial fluid; conditions: Cricetulus griseus
[14] = Plasma protein binding in rat; assay type: ADME, cell-free; conditions: read-out: PPB

Sequence of Matrix metalloproteinase (1 and 13) (Homo sapiens) (P03956 whole entry, looked up, other chains not shown): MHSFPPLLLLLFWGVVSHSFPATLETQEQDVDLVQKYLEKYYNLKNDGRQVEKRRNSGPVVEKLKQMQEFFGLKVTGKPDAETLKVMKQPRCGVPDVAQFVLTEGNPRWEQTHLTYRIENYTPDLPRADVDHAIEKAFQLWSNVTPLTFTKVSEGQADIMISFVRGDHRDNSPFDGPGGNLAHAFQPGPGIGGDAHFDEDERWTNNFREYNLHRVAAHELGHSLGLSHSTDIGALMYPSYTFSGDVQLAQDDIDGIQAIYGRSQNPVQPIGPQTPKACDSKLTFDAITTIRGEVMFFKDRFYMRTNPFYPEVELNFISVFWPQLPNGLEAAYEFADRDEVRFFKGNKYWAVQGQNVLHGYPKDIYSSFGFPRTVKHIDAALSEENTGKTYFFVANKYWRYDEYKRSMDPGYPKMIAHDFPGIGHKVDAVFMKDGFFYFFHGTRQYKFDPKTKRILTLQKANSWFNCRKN

SMILES | Selectivity ratio (Homo sapiens [1]) | Selectivity ratio (Homo sapiens [2]) | IC50 (Collagenase 3 [3]) [nM] | Selectivity ratio (Homo sapiens [4]) | other results
CCOCCC1(Oc2ccc(Oc3ccc(-c4nc(-c5ccccc5)co4)cc3)cc2)C(=O)NC(=O)NC1=O | 58 | 259 | 2.4 | 115 | 
CCOCCC1(Oc2ccc(Oc3ccc(-c4cc(-c5ccccc5)no4)cc3)cc2)C(=O)NC(=O)NC1=O | 11 | 38 | 1.6 | 571 | 
CCOCCC1(Oc2ccc(Oc3ccc(-c4nc(-c5ccccc5C#N)co4)cc3)cc2)C(=O)NC(=O)NC1=O | 142 | 178 | 0.88 | 569 | 
CCOCCC1(Oc2ccc(Oc3ccc(-c4nc(-c5ccccc5)no4)cc3)cc2)C(=O)NC(=O)NC1=O | 54 | 138 | 3.4 | 208 | 
COCCC1(Oc2ccc(Oc3ccc(-c4nc(-c5ccc(F)cc5)co4)cc3)cc2)C(=O)NC(=O)NC1=O | 356 | 960 | 0.57 | 338 | 
CCOCCC1(Oc2ccc(Oc3ccc(-c4noc(-c5ccccc5)n4)cc3)cc2)C(=O)NC(=O)NC1=O | 27 | 37 | 0.84 |  | 
CCOCCC1(Oc2ccc(Oc3ccc(-c4nc(-c5ccncc5)no4)cc3)cc2)C(=O)NC(=O)NC1=O | 291 | 232 | 0.54 | 555 | 
CCOCCC1(Oc2ccc(Oc3ccc(-c4nc(-c5cccnc5)co4)cc3)cc2)C(=O)NC(=O)NC1=O | 38 | 124 | 0.34 | 265 | 
COCCC1(Oc2ccc(Oc3ccc(-c4nc(-c5ccc(C#N)cc5)co4)cc3)cc2)C(=O)NC(=O)NC1=O | 397 | 619 | 0.84 | 394 | Selectivity ratio (Homo sapiens [5]): 540; Selectivity ratio [6]: 2400; IC50 (Cartilage tissue): 40 nM; IC50 (Collagenase 3 [7]): 7200 nM; half-life [8]: 6.9 h; Selectivity ratio (Homo sapiens [9]): 1700; Vd [10]: 0.34 L/kg; clearance [11]: 0.63 mL/min/kg; Selectivity ratio (Homo sapiens [12]): 540; ED50 (Collagenase 3 [13]): 1 mg/kg; fraction unbound [14]: < 0.01
CCOCCC1(Oc2ccc(Oc3ccc(-c4nc(-c5ccccn5)co4)cc3)cc2)C(=O)NC(=O)NC1=O | 74 | 158 | 1 | 57 | 
CCOCCC1(Oc2ccc(Oc3ccc(-c4nc(-c5ccc(F)cc5)co4)cc3)cc2)C(=O)NC(=O)NC1=O | 455 | 573 | 0.68 | 243 | 
CCOCCC1(Oc2ccc(Oc3ccc(C(=O)Nc4cccnc4)cc3)cc2)C(=O)NC(=O)NC1=O | 63 | 190 | 0.4 | 120 | 
CCOCCC1(Oc2ccc(Oc3ccc(-c4nnc(-c5ccccc5)o4)cc3)cc2)C(=O)NC(=O)NC1=O | 66 | 126 | 12 | 98 | 
CCOCCC1(Oc2ccc(Oc3ccc(-c4nc(-c5cccc(F)c5)co4)cc3)cc2)C(=O)NC(=O)NC1=O | 292 | 906 | 0.36 | 133 | 
CCOCCC1(Oc2ccc(Oc3ccc(C(=O)NCc4ccccc4)cc3)cc2)C(=O)NC(=O)NC1=O | 21 | 27 | 8 |  | 
CCOCCC1(Oc2ccc(Oc3ccc(-c4nc(-c5ccc(C#N)cc5)co4)cc3)cc2)C(=O)NC(=O)NC1=O | 429 | 373 | 0.45 | 233 | 
CCOCCC1(Oc2ccc(Oc3ccc(C(=O)NCc4ccc(F)cc4)cc3)cc2)C(=O)NC(=O)NC1=O | 17 | 11 | 3.4 |  | 
COCCC1(Oc2ccc(Oc3ccc(-c4nc(-c5ccccc5F)co4)cc3)cc2)C(=O)NC(=O)NC1=O | 288 | 605 | 1.4 | 149 | 

SMILES | Selectivity ratio (Homo sapiens [1]) | Selectivity ratio (Homo sapiens [2]) | IC50 (Collagenase 3 [3]) [nM] | Selectivity ratio (Homo sapiens [4]) | other results
CCOCCC1(Oc2ccc(Oc3ccc(-c4nc(-c5ccc(F)cc5)no4)cc3)cc2)C(=O)NC(=O)NC1=O | 80 | 114 | 6.1 | 210 | 
CCOCCC1(Oc2ccc(Oc3ccc(-c4nc(-c5ccccc5F)no4)cc3)cc2)C(=O)NC(=O)NC1=O | 102 | 176 | 3.3 | 167 | 
CCOCCC1(Oc2ccc(Oc3ccc(C(=O)Nc4ccccc4)cc3)cc2)C(=O)NC(=O)NC1=O | 58 | 50 | 0.84 | 200 | 
CCOCCC1(Oc2ccc(Oc3ccc(-c4nc(-c5cccc(F)c5)no4)cc3)cc2)C(=O)NC(=O)NC1=O | 88 | 56 | 7.8 | 95 | 
CCOCCC1(Oc2ccc(Oc3ccc(C(=O)NCc4cccc(F)c4)cc3)cc2)C(=O)NC(=O)NC1=O | 74 | 120 | 0.85 | 25 | 
CCOCCC1(Oc2ccc(Oc3ccc(C(=O)NCc4ccccn4)cc3)cc2)C(=O)NC(=O)NC1=O | 17 | 30 | 6.1 |  | 
COCCC1(Oc2ccc(Oc3ccc(-c4nc(-c5ccccc5C#N)co4)cc3)cc2)C(=O)NC(=O)NC1=O | 173 | 342 | 0.73 | 516 | 
CCOCCC1(Oc2ccc(Oc3ccc(-c4nc(-c5ccncc5)co4)cc3)cc2)C(=O)NC(=O)NC1=O | 70 | 530 | 0.4 | 250 | 
CCOCCC1(Oc2ccc(Oc3ccc(-c4ncc(-c5ccccc5)o4)cc3)cc2)C(=O)NC(=O)NC1=O | 144 | 103 | 7.5 | 43 | 
CCOCCC1(Oc2ccc(Oc3ccc(-c4nc(-c5cccc(C#N)c5)co4)cc3)cc2)C(=O)NC(=O)NC1=O | 58 | 134 | 0.53 | 155 | 
CCOCCC1(Oc2ccc(Oc3ccc(C(=O)NCc4ccccc4F)cc3)cc2)C(=O)NC(=O)NC1=O | 55 | 80 | 1.1 | 27 | 
CCOCCC1(Oc2ccc(Oc3ccc(-c4nc(-c5ccccc5F)co4)cc3)cc2)C(=O)NC(=O)NC1=O | 562 | 868 | 0.93 | 270 | 
CCOCCC1(Oc2ccc(Oc3ccc(-c4cnc(-c5ccccc5)o4)cc3)cc2)C(=O)NC(=O)NC1=O | 165 | 309 | 1.7 | 212 | 
CCOCCC1(Oc2ccc(Oc3ccc(C(=O)Nc4ccccn4)cc3)cc2)C(=O)NC(=O)NC1=O | 27 | 27 | 3.9 | 15 | 
CCOCCC1(Oc2ccc(Oc3ccc(C(=O)NCc4cccnc4)cc3)cc2)C(=O)NC(=O)NC1=O | 26 | 27 | 2.6 |  | 
COCCC1(Oc2ccc(Oc3ccc(-c4nc(-c5cccc(F)c5)co4)cc3)cc2)C(=O)NC(=O)NC1=O | 239 | 1310 | 0.46 | 152 | 
COCCC1(Oc2ccc(Oc3ccc(-c4nc(-c5cccc(C#N)c5)co4)cc3)cc2)C(=O)NC(=O)NC1=O | 29 | 181 | 0.63 | 140 | 
CCOCCC1(Oc2ccc(Oc3ccc(-c4nc(-c5cccnc5)no4)cc3)cc2)C(=O)NC(=O)NC1=O | 134 | 504 | 2 | 320 | 

— ChEMBL document CHEMBL1139698, “Potent, selective pyrimidinetrione-based inhibitors of MMP-13” (Bioorg Med Chem Lett, 2006)
